Data published in patent US20020137929A1, “1 - (3-heterocyclylphenyl) isothiourea, -isourea, -guanidine and -amidine herbicidal agents” (Intellectual Property Department, BASF Aktiengesellschaft, priority 1998, published 2002).

How the values were obtained:
[1] = test system: IPOHE (Morningglory, Ivyleaf); assay: Preemergence herbicidal evaluation; assay type: in vivo, Ipomoea hederacea; conditions: rated 4-5 weeks after treatment
Procedure, shortened: (§1)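 Steps: mix seeds into potting soil; plant atop ~1 inch soil; spray compound in aqueous acetone (~0.0156-0.500 kg/ha equivalent); maintain in greenhouse with watering; rate visually 0-9 versus control at 4-5 weeks.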

[2] = test system: SAGPY (Arrowhead (Pygmaea)); assay: Preemergence weed control under flooded paddy conditions; assay type: in vivo, Sagittaria pygmaea; conditions: rated 3-4 weeks after treatment
Procedure, shortened: (§2)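 First, seeds or propagules go into the top 0.5 cm of silt loam; next, water is held 1.5 to 3 cm over the soil; then compound (50/50 acetone/water) is pipetted into it at about 0.0313 to 0.500 kg/ha; finally plants are rated visually 0-9 after three to four weeks.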

[3] = test system: CHEAL (Lambsquarters, Common); assay: Postemergence herbicidal evaluation; assay type: in vivo, Chenopodium album; conditions: postemergence
Procedure, shortened: (§3)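 Scores (0–9) reflect plant stand, vigor, malformation, size, chlorosis and general appearance relative to control, read 4 to 5 weeks after treatment and averaged where tests were repeated. Application: about 0.0156–0.500 kg/ha sprayed at 40 psi onto two-week seedlings.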

CASOB (Sicklepod) [4] = assay: Postemergence herbicidal evaluation; assay type: in vivo, Cassia obtusifolia; conditions: postemergence
Procedure, shortened: as §3

[5] = test system: IPOHE (Morningglory, Ivyleaf); assay: Postemergence herbicidal evaluation; assay type: in vivo, Ipomoea hederacea; conditions: postemergence
Procedure, shortened: as §3

CASOB (Sicklepod) [6] = assay: Preemergence herbicidal evaluation; assay type: in vivo, Cassia obtusifolia; conditions: rated 4-5 weeks after treatment
Procedure, shortened: as §1

[7] = test system: GLXMAW (Soybean, Williams); assay: Preemergence herbicidal evaluation; assay type: in vivo, Glycine max, (L.) Merr. cv Williams; conditions: rated 4-5 weeks after treatment
Procedure, shortened: as §1

[8] = test system: TRZAWR (Wheat, Winter, cv Riband); assay: Postemergence herbicidal evaluation; assay type: in vivo, Triticum aestivum; conditions: postemergence
Procedure, shortened: as §3

[9] = test system: GLXMAW (Soybean, Williams); assay: Postemergence herbicidal evaluation; assay type: in vivo, Glycine max, (L.) Merr. cv Williams; conditions: postemergence
Procedure, shortened: as §3

AMBEL (Ragweed, Common) [10] = assay: Preemergence herbicidal evaluation; assay type: in vivo, Ambrosia artemisifolia; conditions: rated 4-5 weeks after treatment
Procedure, shortened: as §1

AMBEL (Ragweed, Common) [11] = assay: Postemergence herbicidal evaluation; assay type: in vivo, Ambrosia artemisifolia; conditions: postemergence
Procedure, shortened: as §3

ABUTH (Velvetleaf) = assay: Preemergence herbicidal evaluation; assay type: in vivo, Abutilon theophrasti; conditions: rated 4-5 weeks after treatment
Procedure, shortened: as §1

ECHCG (Barnyardgrass) = assay: Postemergence herbicidal evaluation; assay type: in vivo, Echinochloa crus-galli; conditions: postemergence
Procedure, shortened: as §3

[12] = test system: CHEAL (Lambsquarters, Common); assay: Preemergence herbicidal evaluation; assay type: in vivo, Chenopodium album; conditions: rated 4-5 weeks after treatment
Procedure, shortened: as §1

ORYSAT (Rice, Tebonnet) = assay: Preemergence herbicidal evaluation; assay type: in vivo, Oryza sativa, (L.) Tebonnet; conditions: rated 4-5 weeks after treatment
Procedure, shortened: as §1

MOOVA (Monochoria) = assay: Preemergence weed control under flooded paddy conditions; assay type: in vivo, Monochoria vaginalis; conditions: rated 3-4 weeks after treatment
Procedure, shortened: as §2

## C#CC(C)N1C(=O)CSC1=Nc1cc(-n2c(=O)cc(C(F)(F)F)n(C)c2=O)c(F)cc1Cl (stereo not shown) [Compound 165, 3-{4-Chloro-2-fluoro-5-{[3-(1-methyl-2-propynyl)-4-oxo-2-thiazolidinylidene]amino}phenyl}-1-methyl-6-(trifluoromethyl)-2,4(1H,3H)-pyrimidinedione]
[1]; 0.0156 kg/ha
  Preemergence herbicidal rating IPOHE: 0.0
[1]; 0.0313 kg/ha
  Preemergence herbicidal rating IPOHE: 0.0
[1]; 0.1250 kg/ha
  Preemergence herbicidal rating IPOHE: 2.0
[1]; 0.2500 kg/ha
  Preemergence herbicidal rating IPOHE: 9.0
[1]; 0.5000 kg/ha
  Preemergence herbicidal rating IPOHE: 9.0
[2]; 0.0313 kg/ha
  herbicidal effect rating, SAGPY: 4.0
[2]; 0.0625 kg/ha
  herbicidal effect rating, SAGPY: 5.0
[2]; 0.1250 kg/ha
  herbicidal effect rating, SAGPY: 4.0
[2]; 0.2500 kg/ha
  herbicidal effect rating, SAGPY: 7.0
[3]; rate 0.0156 kg/ha
  herbicidal rating CHEAL: 5.0
[3]; rate 0.0313 kg/ha
  herbicidal rating CHEAL: 6.0
[3]; rate 0.0625 kg/ha
  herbicidal rating CHEAL: 7.0
[3]; rate 0.1250 kg/ha
  herbicidal rating CHEAL: 9.0
CASOB (Sicklepod) [4]; rate 0.0156 kg/ha
  herbicidal rating CASOB: 0.0
CASOB (Sicklepod) [4]; rate 0.0313 kg/ha
  herbicidal rating CASOB: 2.0
CASOB (Sicklepod) [4]; rate 0.0625 kg/ha
  herbicidal rating CASOB: 3.0
CASOB (Sicklepod) [4]; rate 0.1250 kg/ha
  herbicidal rating CASOB: 3.0
[5]; rate 0.0156 kg/ha
  herbicidal rating IPOHE: 9.0
[5]; rate 0.0313 kg/ha
  herbicidal rating IPOHE: 9.0
[5]; rate 0.0625 kg/ha
  herbicidal rating IPOHE: 9.0
[5]; rate 0.1250 kg/ha
  herbicidal rating IPOHE: 9.0
CASOB (Sicklepod) [6]; 0.0313 kg/ha
  Preemergence herbicidal rating CASOB: 0.0
CASOB (Sicklepod) [6]; 0.0625 kg/ha
  Preemergence herbicidal rating CASOB: 0.0
CASOB (Sicklepod) [6]; 0.1250 kg/ha
  Preemergence herbicidal rating CASOB: 1.0
CASOB (Sicklepod) [6]; 0.2500 kg/ha
  Preemergence herbicidal rating CASOB: 7.0
CASOB (Sicklepod) [6]; 0.5000 kg/ha
  Preemergence herbicidal rating CASOB: 7.0
[7]; 0.0156 kg/ha
  Preemergence herbicidal rating GLXMAW: 0.0
[7]; 0.0313 kg/ha
  Preemergence herbicidal rating GLXMAW: 0.0
[7]; 0.0625 kg/ha
  Preemergence herbicidal rating GLXMAW: 4.0
[7]; 0.1250 kg/ha
  Preemergence herbicidal rating GLXMAW: 4.0
[7]; 0.2500 kg/ha
  Preemergence herbicidal rating GLXMAW: 5.0
[7]; 0.5000 kg/ha
  Preemergence herbicidal rating GLXMAW: 6.0
[8]; rate 0.0156 kg/ha
  herbicidal rating TRZAWR: 3.0
[8]; rate 0.0313 kg/ha
  herbicidal rating TRZAWR: 3.0
[8]; rate 0.0625 kg/ha
  herbicidal rating TRZAWR: 4.0
[8]; rate 0.1250 kg/ha
  herbicidal rating TRZAWR: 5.0
[9]; rate 0.0156 kg/ha
  herbicidal rating GLXMAW: 5.0
[9]; rate 0.0313 kg/ha
  herbicidal rating GLXMAW: 5.0
[9]; rate 0.0625 kg/ha
  herbicidal rating GLXMAW: 6.5
[9]; rate 0.1250 kg/ha
  herbicidal rating GLXMAW: 7.0
AMBEL (Ragweed, Common) [10]; 0.0156 kg/ha
  Preemergence herbicidal rating AMBEL: 0.0
AMBEL (Ragweed, Common) [10]; 0.0313 kg/ha
  Preemergence herbicidal rating AMBEL: 1.0
AMBEL (Ragweed, Common) [10]; 0.0625 kg/ha
  Preemergence herbicidal rating AMBEL: 0.0
AMBEL (Ragweed, Common) [10]; 0.1250 kg/ha
  Preemergence herbicidal rating AMBEL: 7.0
AMBEL (Ragweed, Common) [10]; 0.2500 kg/ha
  Preemergence herbicidal rating AMBEL: 7.0
AMBEL (Ragweed, Common) [10]; 0.5000 kg/ha
  Preemergence herbicidal rating AMBEL: 9.0
AMBEL (Ragweed, Common) [11]; rate 0.0156 kg/ha
  herbicidal rating AMBEL: 2.0
AMBEL (Ragweed, Common) [11]; rate 0.0313 kg/ha
  herbicidal rating AMBEL: 6.0
AMBEL (Ragweed, Common) [11]; rate 0.0625 kg/ha
  herbicidal rating AMBEL: 7.0
AMBEL (Ragweed, Common) [11]; rate 0.1250 kg/ha
  herbicidal rating AMBEL: 9.0
ABUTH (Velvetleaf); 0.0156 kg/ha
  Preemergence herbicidal rating ABUTH: 0.0
ABUTH (Velvetleaf); 0.0313 kg/ha
  Preemergence herbicidal rating ABUTH: 0.0
ABUTH (Velvetleaf); 0.0625 kg/ha
  Preemergence herbicidal rating ABUTH: 0.0
ABUTH (Velvetleaf); 0.1250 kg/ha
  Preemergence herbicidal rating ABUTH: 9.0
ABUTH (Velvetleaf); 0.2500 kg/ha
  Preemergence herbicidal rating ABUTH: 9.0
ABUTH (Velvetleaf); 0.5000 kg/ha
  Preemergence herbicidal rating ABUTH: 9.0
ECHCG (Barnyardgrass); rate 0.0156 kg/ha
  herbicidal rating ECHCG: 2.0
ECHCG (Barnyardgrass); rate 0.0313 kg/ha
  herbicidal rating ECHCG: 4.0
ECHCG (Barnyardgrass); rate 0.0625 kg/ha
  herbicidal rating ECHCG: 3.0
ECHCG (Barnyardgrass); rate 0.1250 kg/ha
  herbicidal rating ECHCG: 5.0
[12]; 0.0156 kg/ha
  Preemergence herbicidal rating CHEAL: 4.0
[12]; 0.0313 kg/ha
  Preemergence herbicidal rating CHEAL: 9.0
[12]; 0.0625 kg/ha
  Preemergence herbicidal rating CHEAL: 9.0
[12]; 0.1250 kg/ha
  Preemergence herbicidal rating CHEAL: 9.0
[12]; 0.2500 kg/ha
  Preemergence herbicidal rating CHEAL: 9.0
[12]; 0.5000 kg/ha
  Preemergence herbicidal rating CHEAL: 9.0
ORYSAT (Rice, Tebonnet); 0.0156 kg/ha
  Preemergence herbicidal rating ORYSAT: 0.0
ORYSAT (Rice, Tebonnet); 0.0313 kg/ha
  Preemergence herbicidal rating ORYSAT: 0.0
ORYSAT (Rice, Tebonnet); 0.0625 kg/ha
  Preemergence herbicidal rating ORYSAT: 0.0
ORYSAT (Rice, Tebonnet); 0.1250 kg/ha
  Preemergence herbicidal rating ORYSAT: 1.0
ORYSAT (Rice, Tebonnet); 0.2500 kg/ha
  Preemergence herbicidal rating ORYSAT: 3.0
ORYSAT (Rice, Tebonnet); 0.5000 kg/ha
  Preemergence herbicidal rating ORYSAT: 5.0
MOOVA (Monochoria); 0.0313 kg/ha
  herbicidal effect rating, MOOVA: 9.0
MOOVA (Monochoria); 0.0625 kg/ha
  herbicidal effect rating, MOOVA: 9.0
MOOVA (Monochoria); 0.1250 kg/ha
  herbicidal effect rating, MOOVA: 9.0
MOOVA (Monochoria); 0.2500 kg/ha
  herbicidal effect rating, MOOVA: 9.0
